Test results as given in patent publication US6455575B2, “Phosphonooxymethyl ethers of taxane derivatives” (Bristol-Myers Squibb Company, priority 1992, dated 2002).

What was measured:
[1] = system: HCT-116 human colon carcinoma cells; assay: In vitro cytotoxicity, XTT assay; format: cell-based; settings: 72 h incubation, Examples 1 and 4 as free acid, example 3 as sodium salt
[2] = system: HCT-116/VM46 human colon carcinoma cells; assay: In vitro cytotoxicity, XTT assay, multi-drug resistant line; format: cell-based; settings: 72 h incubation, teniposide-selected, paclitaxel-resistant cells, Examples 1 and 4 as free acid, example 3 as sodium salt
M109 lung carcinoma [3] = assay: In vivo antitumor activity, subcutaneous M109 model; parameters: species or system mice; settings: for T-C / max. % T/C: once daily x5 from Day 4
[4] = system: HCT-116 human colon carcinoma; assay: HCT-116 human tumor xenograft model; format: in vivo; settings: for cures (tumor-free on Day 80 post tumor implant): athymic mice, every other day x5
[5] = system: A2780/cDDP human ovarian carcinoma resistant to cisplatin; assay: A2780/cDDP human tumor xenograft model; format: in vivo; settings: athymic mice, every other day x5
M109 lung carcinoma [6] = assay: Mice M109 model, intraperitoneal implant; format: in vivo; settings: ip M109, ip injections, d. 5 + 9, median survival
Procedure: Balb/c x DBA/2 F1 hybrid mice were implanted intraperitoneally, as described by William Rose in Evaluation of Madison 109 Lung Carcinoma as a Model for Screening Antitumor Drugs, Cancer Treatment Reports, 65, No. 3-4 (1981), with 0.5 mL of a 2% (w/v) brei of M109 lung carcinoma.
Mice were treated with compound under study by receiving intraperitoneal injections of various doses on either days 1, 5 and 9 post-tumor implant or days 5 and 8 post-implant. Mice were followed daily for survival until approximately 75 -90 days post-tumor implant. One group of mice per experiment remained untreated and served as the control group. Median survival times of compound-treated (T) mice were compared to the median survial time of the control (C) mice. The ratio of the two values for each compound-treated group of mice was multiplied by 100 and expressed as a percentage (i.e. % T/C) in Table III for representative compounds of formula (B′).

[7] = another M109 experiment, triethanolamine salt, iv, 48 mg/kg/inj.
[8] = another M109 experiment, triethanolamine salt, orally, 200 mg/kg/adm.
[9] = one M109 experiment, triethanolamine salt, iv in water, 36 mg/kg/inj.
[10] = one M109 experiment, triethanolamine salt, orally, 160 mg/kg/adm.
[11] = iv, 36 mg/kg/inj, Example 3 as triethanolamine salt
[12] = another M109 experiment, iv, 48 or 36 mg/kg/inj.
[13] = one M109 experiment, iv, 36 or 18 mg/kg/inj.
[14] = sc M109, i.v. once daily days 5-9, opt. dose 18 mg/kg/inj

With `CSCO[C@H]1C[C@H]2OC[C@@]2(OC(C)=O)[C@H]2[C@H](OC(=O)c3ccccc3)[C@]3(O)C[C@H](OC(=O)[C@H](O)[C@@H](NC(=O)c4ccccc4)c4ccccc4)C(C)=C([C@@H](OC(C)=O)C(=O)[C@]12C)C3(C)C` [Example 1 (a), 7-O-methylthiomethylpaclitaxel] the IC50 [1] was 0.003 µM and the IC50 [2] was 0.025 µM.

`CCOC(=O)O[C@@H](C(=O)O[C@H]1C[C@@]2(O)[C@@H](OC(=O)c3ccccc3)[C@@H]3[C@]4(OC(C)=O)CO[C@@H]4C[C@H](OCOP(=O)(O)O)[C@@]3(C)C(=O)[C@H](OC(C)=O)C(=C1C)C2(C)C)[C@@H](NC(=O)c1ccccc1)c1ccccc1` [Example 3, 2′-O-(ethoxycarbonyl)-7-O-phosphonooxymethylpaclitaxel] was tested, and the T-C (M109 lung carcinoma [3]; [7]) was 17 days, the “max. % T/C” value (M109 lung carcinoma [3]; [7]) was 170% and the T-C (M109 lung carcinoma [3]; [8]) was 17 days. The “max. % T/C” value (M109 lung carcinoma [3]; [8]) was 172%, the T-C (M109 lung carcinoma [3]; [9]) was 19 days and the “max. % T/C” value (M109 lung carcinoma [3]; [9]) was 155%. The T-C (M109 lung carcinoma [3]; [10]) was 22.8 days, the “max. % T/C” value (M109 lung carcinoma [3]; [10]) was 158% and the “Maximum Effect T-C” value (M109 lung carcinoma [3]; sc M109, sodium salt, i.v. once daily days 5-9, opt. dose 24 mg/kg/inj) was 18.8 days. The “Maximum Effect % T/C” value (M109 lung carcinoma [3]; sc M109, sodium salt, i.v. once daily days 5-9 post-tumor implant, opt. dose 24 mg/kg/inj) was 160%, the IC50 [1] was 0.312 µM and the “cures (tumor-free on Day 80 post tumor implant)” value ([4]; oral, 160 mg/kg/adm., triethanolamine salt, of 8 treated mice) was 6. The “cures (tumor-free on Day 80 post tumor implant)” value ([4]; oral, 240 mg/kg/adm., triethanolamine salt, of 8 treated mice) was 7, the IC50 [2] was 6.25 µM and the “max. T-C” value [5, 11] was 29.8 days. The “max. T-C” value ([5]; orally, 160 mg/kg/adm., triethanolamine salt) was 20 days.

`CC(=O)O[C@H]1C(=O)[C@@]2(C)[C@H]([C@H](OC(=O)c3ccccc3)[C@]3(O)C[C@H](OC(=O)[C@H](OCOP(=O)(O)O)[C@@H](NC(=O)c4ccccc4)c4ccccc4)C(C)=C1C3(C)C)[C@]1(OC(C)=O)CO[C@@H]1C[C@@H]2O` [Example 4, 2′-O-(Phosphonooxymethyl)paclitaxel] was tested, and the IC50 [1] was 0.0457 µM and the IC50 [2] was > 6.3 µM.

For `CCOC(=O)O[C@@H](C(=O)O[C@H]1C[C@@]2(O)[C@@H](OC(=O)c3ccccc3)[C@@H]3[C@]4(OC(C)=O)CO[C@@H]4C[C@H](OCSC)[C@@]3(C)C(=O)[C@H](OC(C)=O)C(=C1C)C2(C)C)[C@@H](NC(=O)OC(C)(C)C)c1ccccc1` [Example 15, 3′-N-debenzoyl-3′-N-(t-butoxycarbonyl)-2′-O-ethyloxycarbonyl-7-O-methylthiomethylpaclitaxel], the “T/C (mg/kg/inj.; schedule in days)” value (M109 lung carcinoma [6]; 8 mg/kg/inj.) was 192 (8; d. 5 + 9) %.

For `CC(=O)O[C@@]12CO[C@@H]1C[C@H](O)[C@@]1(C)C(=O)[C@H](O)C3=C(C)[C@@H](OC(=O)[C@H](O)[C@@H](NC(=O)OC(C)(C)C)c4ccccc4)C[C@@](O)([C@@H](OC(=O)c4ccccc4)[C@H]21)C3(C)C` [Texotere ®, reference compound], the IC50 [1] was 0.004 µM and the IC50 [2] was 0.213 µM.

With `CSCO[C@H]1C[C@H]2OC[C@@]2(OC(C)=O)[C@H]2[C@H](OC(=O)c3ccccc3)[C@]3(O)C[C@H](OC(=O)[C@H](O)[C@@H](NC(=O)OC(C)(C)C)c4ccccc4)C(C)=C([C@@H](OC(C)=O)C(=O)[C@]12C)C3(C)C` [14 (b), 3′-N-debenzoyl-3′-N-(t-butoxycarbonyl)-7-O-methylthiomethylpaclitaxel] the “T/C (mg/kg/inj.; schedule in days)” value (M109 lung carcinoma [6]; 12 mg/kg/inj.) was 143 (12; d. 5 + 9) %.

With `CC(=O)O[C@H]1C(=O)[C@@]2(C)[C@H]([C@H](OC(=O)c3ccccc3)[C@]3(O)C[C@H](OC(=O)[C@H](O)[C@@H](NC(=O)c4ccccc4)c4ccccc4)C(C)=C1C3(C)C)[C@]1(OC(C)=O)CO[C@@H]1C[C@@H]2O` [paclitaxel, reference compound] the “activity in sc M109 model” value (M109 lung carcinoma [3]; another M109 experiment, dissolved in cremophore/ethanol/saline, 60/mg/kg/inj.) was “did not show activity”, the T-C (M109 lung carcinoma [3]; [12]) was 14 days and the “max. % T/C” value (M109 lung carcinoma [3]; [12]) was 167%. For the same molecule, the “activity in sc M109 model” value (M109 lung carcinoma [3]; one M109 experiment, 160 mg/kg/adm. (highest tested), suspended in water and Tween 80) was “did not show activity”, the T-C (M109 lung carcinoma [3]; [13]) was 13 days and the “max. % T/C” value (M109 lung carcinoma [3]; [13]) was 132%. For the same molecule, the “Maximum Effect T-C” value (M109 lung carcinoma [3]; sc M109, i.v. once daily days 4-8, opt. dose 24 mg/kg/inj (lower dose gave maximum delay in tumor growth)) was 14 days, the “Maximum Effect % T/C” value (M109 lung carcinoma [3]; sc M109, i.v. once daily days 4-8, opt. dose 48 mg/kg/inj (higher dose gave maximum increase in lifespan)) was 134% and the “Maximum Effect % T/C” value (M109 lung carcinoma [3]; [14]) was 151%. For the same molecule, the “Maximum Effect T-C” value (M109 lung carcinoma [3]; [14]) was 15 days, the IC50 [1] was 0.004 µM and the “cures (tumor-free on Day 80 post tumor implant)” value ([4]; iv, 24 mg/kg/inj., of 7 treated mice) was 6. For the same molecule, the “cures (tumor-free on Day 80 post tumor implant)” value ([4]; iv, 36 mg/kg/inj., of 8 treated mice) was 6, the IC50 [2] was 0.44 µM and the “max. T-C” value [5, 11] was 26.3 days.

For “7-O-phosphonooxymethylpaclitaxel [Example 1]”, the “Maximum Effect T-C” value (M109 lung carcinoma [3]; sc M109, CDF1 mice, sodium salt, i.v. once daily days 4-8, opt. dose 45 mg/kg/inj, delay to 1 gm tumor) was 14.0 days, the “Maximum Effect % T/C” value (M109 lung carcinoma [3]; sc M109, CDF1 mice, sodium salt, i.v. once daily days 4-8 post-tumor implant, opt. dose 45 mg/kg/inj, median survival) was 131% and the “oral activity in the M109 model” value (M109 lung carcinoma [3]; triethanolamine salt, oral) was “oral activity”. For the same molecule, the IC50 [1] was 0.0158 µM, the “oral activity in the HCT-116 model” value ([4]; triethanolamine salt, oral) was “oral activity” and the IC50 [2] was 1.24 µM.
